How the values were obtained:
Wee1 kinase = Wee1 kinase (Homo sapiens, UniProt P30291); test: WEE1 protein kinase inhibitory activity assay (ADP-GLO luminescence); assay type: biochemical; details: for IC50: Wee1 10 ng/well, ATP 10 µM, 3 h, 37 °C
Description: The influence of the compound MRANK-106 of the present disclosure on the kinase activity of Weel was assessed using an in vitro kinase reaction system.
Table 2-1. Information about reagents and consumables
① 1× kinase buffer: A 5× kinase buffer was diluted with ddH2O to make a 1× kinase buffer. Table 2-3. The reagent components added to the 1× kinase buffer
③ 5× enzyme working solution: The optimization of the enzyme concentration had been completed in previous work, and the concentration of the reagent used in the screening is shown in Table 2-4. A 5× enzyme working solution of the enzyme was formulated using the 1× kinase buffer.
④ Compound formulation: A 10 mM mother liquor was formulated using DMSO, aliquoted, and then stored at -20 °C. Immediately before use, the mother liquor was thawed, diluted with DMSO to 1 mM, serially diluted 4-fold to 10 concentration points, and then 40-fold diluted with the 1× kinase buffer to give a 2.5× working solution. Table 2-4. The experimental conditions for the kinase activity assay
After the above reagents were formulated and equilibrated to room temperature, 4 µL of the diluted solution of the compound to be tested and 2 µL of the formulated enzyme solution were added to reaction wells. After shaking and centrifugation, the plate was incubated at room temperature for 15 min, and 4 µL of the ATP solution was then added to start a kinase reaction. After 3 h of reaction at 37 °C, 10 µL of an ADP-GLO reagent was added. After thorough mixing, the mixture was left to react at room temperature for 40 min, and 20 µL of a detection reagent was then added. After 30 min of reaction at room temperature, the luminescence signals were detected using a SpectraMax L instrument. Two independent duplicate assays were performed. The inhibition rate of each well was calculated based on all activity wells and background signal wells, with an average calculated for duplicate wells. Meanwhile, the inhibition rate was plotted using the professional graphing and analysis software PRISM 9.0, and the IC50 was calculated.
The inhibition rates of the compounds to be tested against the kinase activity of Wee1 were calculated using the following formula: Inhibition rate% = (Lumvehicle−Lumcompound)/(Lumvehicle−Lumblank) × 100% [formula] • Lumcompound: the luminescence of the sample treatment groups • Lumvehicle: the luminescence of the solvent control group • Lumblank: the luminescence of the blank group

[1] = test system: SW620 human colon cancer cells; test: In vivo efficacy study against SW620 tumors (subcutaneous tumor-bearing model); set-up: species or system BALB/c nude mice; details: for Relative tumor inhibition rate (%) Day 21 / Relative tumor volume Day 21: PO, QD×21
Description: (§1) SW620 human colon cancer cells were subcultured and expanded in an L-15 culture medium containing 10% FBS. BALB/c nude mice aged 6-8 weeks were taken and each subcutaneously injected with 1 × 10^6 cells to establish a tumor-bearing model. The tumor volume was monitored, and when the tumor volume reached about 150 mm^3, the animals were randomized into 5 groups according to body weight and tumor volume. The animals were given, by oral gavage, the vehicle or compounds to be tested (ZN-c3 and compound IE) once daily for a total of 21 days. During the period of administration, the tumor volume and the animal body weight were measured twice a week, and the animals' states were observed daily. At the endpoint, the animals were euthanized with carbon dioxide, and the subcutaneous tumors were isolated and weighed.
(§2) The data calculation formulae are shown below: The tumor volume (TV) was calculated using the formula 1/2×axb^2, where a and b represent the length and width measurements of the tumor, respectively.
The tumor growth inhibition rate (%TGITV) was calculated using the formula (1 - TVT/TVC) × 100%, where TVc represents the average tumor volume of the negative control group, and TVT represents the average tumor volume of the treatment group.
(§3) The relative tumor volume (RTV) was calculated using the formula Vt/V0, where V0 represents the tumor volume at the time of grouping, and Vt represents the tumor volume at each measurement.

[2] = test system: Human colon cancer LoVo cells; test: In vivo efficacy study against LoVo tumors (subcutaneous tumor-bearing model); set-up: species or system BALB/c nude mice; details: for Relative tumor inhibition (%) Day 28 / Relative tumor volume Day 28: PO
Description: as §1, with “Human colon” for “SW620 human colon”, “cancer LoVo” for “cancer”, “an F12K” for “an L-15”, “with 2” for “with 1”, “and” for “and compound”, “of 28” for “of 21”
as §2
The tumor growth inhibition rate (%TGITV) was calculated using the formula (1 - TVT/TVC) × 100%, where TVC represents the average tumor volume of the negative control group, and TVT represents the average tumor volume of the treatment group.
as §3

Wee1 kinase, sequence (P30291 whole entry): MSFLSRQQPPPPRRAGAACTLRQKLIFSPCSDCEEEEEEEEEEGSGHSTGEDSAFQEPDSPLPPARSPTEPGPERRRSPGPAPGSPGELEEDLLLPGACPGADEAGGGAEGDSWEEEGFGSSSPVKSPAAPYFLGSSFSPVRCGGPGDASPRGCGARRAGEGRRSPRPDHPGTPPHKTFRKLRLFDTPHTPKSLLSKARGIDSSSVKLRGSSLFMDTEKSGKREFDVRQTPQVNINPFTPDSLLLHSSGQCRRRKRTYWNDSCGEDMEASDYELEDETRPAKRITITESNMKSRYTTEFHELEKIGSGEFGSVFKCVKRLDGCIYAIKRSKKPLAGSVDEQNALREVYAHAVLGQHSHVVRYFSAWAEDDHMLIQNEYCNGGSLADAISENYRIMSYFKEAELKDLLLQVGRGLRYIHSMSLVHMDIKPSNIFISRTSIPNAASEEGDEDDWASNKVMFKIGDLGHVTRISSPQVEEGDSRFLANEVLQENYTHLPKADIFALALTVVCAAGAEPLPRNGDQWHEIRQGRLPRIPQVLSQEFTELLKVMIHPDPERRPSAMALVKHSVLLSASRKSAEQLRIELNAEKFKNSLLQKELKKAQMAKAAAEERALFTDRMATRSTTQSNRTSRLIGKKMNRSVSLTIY

## Cc1cc(Nc2ncc3c(=O)n4n(c3n2)-c2cccc(n2)[C@](C)(O)CCC=CC4)ccc1OC1CCN(C)CC1 (stereo in doubt) [Compound IE, (R,Z)-12-hydroxy-12-methyl-2-((3-methyl-4-((1-methylpiperidin-4-yl)oxy)phenyl)amino)-7,10,11,12-tetrahydro-5H-13,17-(azeno)pyrimido[4',5':3,4]pyrazolo[1,2-a] [1,2]diazacyclotridecin-5-one]
Wee1 kinase
  IC50: 7.8 nM
Wee1 kinase; summary statement on the assay results
  inhibition of the Weel target (in words): strongly inhibited
[1]; 30mg/kg
  Relative tumor inhibition rate (%) Day 21: 38.18%
  Relative tumor volume Day 21: 7.31
[1]; 80mg/kg
  Relative tumor inhibition rate (%) Day 21: 78.38%
  Relative tumor volume Day 21: 2.57
[1]; comparison in words
  activity in inhibiting tumor growth in the SW620 tumor model compared with ZN-c3: higher activity than the reference molecule ZN-c3
[2]; 20 mg/kg, QD × 28
  Relative tumor inhibition (%) Day 28: 60.90%
  Relative tumor volume Day 28: 2.28
[2]; 40 mg/kg, QD × 28
  Relative tumor inhibition (%) Day 28: 89.12%
  Relative tumor volume Day 28: 0.63
[2]; 80mg/kg, QD×28
  Relative tumor inhibition (%) Day 28: 97.12%
  Relative tumor volume Day 28: 0.17
[2]; comparison in words
  activity in inhibiting tumor growth in the LoVo tumor model compared with ZN-c3: significantly better activity than ZN-c3

## C=CCn1c(=O)c2cnc(Nc3ccc(N4CCN(C)CC4)cc3)nc2n1-c1ccc2c(n1)C(O)(CC)CC2 (stereo not drawn) [ZN-c3, reference compound]
Wee1 kinase
  IC50: 5.6 nM
[1]; 30mg/kg
  Relative tumor inhibition rate (%) Day 21: 28.24%
  Relative tumor volume Day 21: 8.57
[1]; 80mg/kg
  Relative tumor inhibition rate (%) Day 21: 36.78%
  Relative tumor volume Day 21: 7.94
[2]; 80mg/kg, QD×28
  Relative tumor inhibition (%) Day 28: 57.98%
  Relative tumor volume Day 28: 2.41

Source: patent EP4711366A1, “PYRIMIDO MACROHETEROCYCLIC COMPOUND AS WEE1-YES DUAL-TARGET INHIBITOR AND USE THEREOF” (Mindrank AI Ltd., priority 2023, dated 2024)
